Measurements from patent US12384751B2, “Allosteric activators of the ALPHA1A-adrenergic receptor” (The Cleveland Clinic Foundation, priority 2019, dated 2025).
“Also recorded” adds a separate entry of the source.

What was measured:
[1] = target: T1, α1D-AR (Homo sapiens, UniProt P25100); assay: cAMP assay at α1D-AR; format: cell-based
T1 construct: expressed in transfected cells; host or cells: Rat-1 fibroblast cells
T1 sequence (P25100 1-572): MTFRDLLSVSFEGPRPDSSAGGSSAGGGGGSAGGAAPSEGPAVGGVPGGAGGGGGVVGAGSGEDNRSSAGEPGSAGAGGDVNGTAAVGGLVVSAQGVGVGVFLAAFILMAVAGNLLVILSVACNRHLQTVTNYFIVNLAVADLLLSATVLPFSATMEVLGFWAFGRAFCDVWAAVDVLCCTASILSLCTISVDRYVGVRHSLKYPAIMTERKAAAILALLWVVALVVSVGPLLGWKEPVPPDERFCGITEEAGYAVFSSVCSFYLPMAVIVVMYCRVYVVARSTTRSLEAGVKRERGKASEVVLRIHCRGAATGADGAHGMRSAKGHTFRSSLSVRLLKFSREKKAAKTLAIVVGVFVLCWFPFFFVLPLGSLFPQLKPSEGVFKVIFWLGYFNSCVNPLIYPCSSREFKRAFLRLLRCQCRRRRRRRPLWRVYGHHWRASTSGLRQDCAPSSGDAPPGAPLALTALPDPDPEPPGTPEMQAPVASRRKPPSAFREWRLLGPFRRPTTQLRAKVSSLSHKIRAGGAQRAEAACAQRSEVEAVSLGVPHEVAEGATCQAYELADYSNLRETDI
Description: (§1) cAMP assay: Cells expressing a single α1-adrenergic receptor subtype are washed and re-plated into 24-well plates in DMEM media without serum at approximately 2.4×10^4 cells/well. Cells are allowed to rest till the next day in a CO2 incubator at 37° C. The cells are washed twice with DMEM (no serum), then 1 ml of DMEM is added to each well. Cells are pre-incubated for 45 mins-1 hour at 37° C. in a CO2 incubator with 10 uM propranolol, followed by 100 uM IBMX for 30 minutes. Final DMSO concentration is at 0.05%. Norepinephrine or epinephrine is added in a dose response (1 dose per well) in addition to one of the Compounds 1-10 at one concentration (i.e. 10^−5M). Cells are incubated for another 30 mins at 37° C. in a CO2 incubator. The reaction is concluded by aspirating the media and adding 0.1M HCL. The mixture is incubated for 20 mins at room temperature. The cells are scraped and suspended until homogenous. The mixture is centrifuged at 1000 g for 10 mins and the supernatant assayed the same day according to a manufacturer's cAMP kit (Cayman Select Cyclic AMP EIA kit #501040).

[2] = target: T2, α1A-AR (Homo sapiens, UniProt P35348); assay: Rapid cAMP screening assay for PAM effects (norepinephrine constant at Emax); format: cell-based, human and mouse; settings: norepinephrine constant at 10^−4M; range over cell lines (fibroblasts, neuroblastoma, cardiomyocytes)
T2 sequence (P35348 1-466): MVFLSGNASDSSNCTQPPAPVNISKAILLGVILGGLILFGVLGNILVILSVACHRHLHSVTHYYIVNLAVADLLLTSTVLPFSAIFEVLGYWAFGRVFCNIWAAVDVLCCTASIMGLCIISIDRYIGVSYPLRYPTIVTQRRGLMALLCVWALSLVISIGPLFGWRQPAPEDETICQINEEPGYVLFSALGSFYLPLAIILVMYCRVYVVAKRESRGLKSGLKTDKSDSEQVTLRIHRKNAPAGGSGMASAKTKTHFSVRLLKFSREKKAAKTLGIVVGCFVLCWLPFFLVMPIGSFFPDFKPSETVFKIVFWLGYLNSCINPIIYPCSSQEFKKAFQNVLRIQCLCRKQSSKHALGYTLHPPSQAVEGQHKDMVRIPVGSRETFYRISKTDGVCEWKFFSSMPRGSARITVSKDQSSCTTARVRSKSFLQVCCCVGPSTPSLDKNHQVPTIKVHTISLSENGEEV
Description: as §1
In this assay, the concentration of norepinephrine is held constant at its Emax (10^−4M) (FIG. 10, red line). Compound 3 is then added in a dose-response (FIG. 10, blue line). Any signal above the red line is potentiation. […]

[3] = target: T2, α1A-AR; assay: cAMP assay at α1A-AR; format: cell-based; design: expressed in transfected cells; host or cells: Rat-1 fibroblast cells
Description: as §1

[4] = target: T2, α1A-AR; assay: Total inositol phosphate assay at α1A-AR; format: cell-based; design: expressed in transfected cells; host or cells: Rat-1 fibroblast cells
Description: Total Inositol Phosphate assay: Cells expressing a single α1-adrenergic receptor subtypes are washed and re-plated into 6-well plates containing DMEM media at approximately 5×10^5 cells/well. Cells are allowed to rest till the next day in a CO2 incubator at 37° C. The cells are washed twice with DMEM (no serum), then 2 ml of DMEM is added to each well. 2 ul of ^3H-inositol (at 1 uCi/mL, Perkin-Elmer NET 114 005MC) and 10 mM LiCl is added to each well. The cells are incubated for 1 hour at 37° C. in a CO2 incubator. […] The cells are incubated again for 1 hour at 37° C. in a CO2 incubator. The media is aspirated and 1 mL of ice-cold 0.4M perchloric acid is added. The cells are scraped, transferred to a vial, then 1 mL 0.72M KOH/0.6M KHCO3 is added, the tube vortexed and the contents centrifuged at 2000 rpm for 10 mins. The supernatant is removed and applied to BioRad polyprep columns packed with 1 mL of AG1-X8 resin (BioRad AG1-X8 resin 100-200 mesh #140-1444) in 0.1M formic acid in a holding tray which is over a plastic catch tray. The supernatant is allowed to naturally drip through the column then washed with 8 ml of 0.1M formic acid (2 ml at a time). The columns are transferred via the holding tray to a box of 20 ml scintillation vials so that the columns drip directly into the vials. Total inositol phosphates are eluted off the column with 2 ml of 0.1M formic acid/1M ammonium formate. The columns are eluted a second time into a new scintillation vial with another 2 ml of 0.1M formic acid/1M ammonium formate. 18 ml of Ecoscint A is added to each scintillation vial and vortexed. The vials are allowed to dark adapt overnight at room temperature to reduce autofluorescence. The vials are counted in a scintillation counter on the tritium channel and the cpms from the first and second fractions eluted off the columns are added together.

In the case of `CC(C)Cc1c(OCC2=NCCN2)cccc1N(C)S(C)(=O)=O` [Compound 3, N-[3-(4,5-Dihydro-1H-imidazol-2-ylmethoxy)-2-isobutyl-phenyl]-N-methyl-methanesulfonamide], the “effect on norepinephrine cAMP response at the α1D-AR” value [1] is reported as “no effect”, the “Emax of PAM potentiation” value [2] is reported as 35-60 % of the norepinephrine's maximum response and the “PAM activity / PAM type” value [3] is reported as “Type I PAM”. For the same compound, the “dose at which potentiation of norepinephrine cAMP response is maximal” value [3] was 10^−8 M, the “effect on epinephrine-mediated cAMP response at the α1A-AR” value ([3]; 10^−5M to 10^−7M of compound) was “no effect” and the “effect on norepinephrine-mediated cAMP response at the α1A-AR” value ([3]; 10^−5M to 10^−9M of compound) was “potentiates”. The “stimulation of cAMP by the compound by itself” value ([3]; compound alone) was “cannot stimulate”, the “potentiation of the cAMP response of norepinephrine” value ([3]; dose-response of compound) was 50% and the “effect on epinephrine-mediated inositol phosphate response at the α1A-AR” value [4] was “no effect”. The “effect on norepinephrine-mediated inositol phosphate response at the α1A-AR” value [4] was “does not have any effect; also recorded: no effect” and the “stimulation of inositol phosphate / agonist activity by the compound by itself” value ([4]; compound alone) was “cannot stimulate”.
